One compound from publication PMC5587909, “Inhibition of the ATP Synthase Eliminates the Intrinsic Resistance of Staphylococcus aureus towards Polymyxins” (mBio, 2017) can be followed below.

≈ marks a conversion by molar mass, not a printed value. Bridge positions count the residues as written; N and C are the ends. Square brackets hold non-standard residues; d marks the D form. Peptide text beside a SMILES is read from it. * marks the point of attachment. X1 = CC[C@H](C)CCCCC(=O)*; Dab = NCC[C@H](N)C(=O)O

Test [1] relates to S. aureus JE2 atpA transposon mutant (SAUSA300_2060). Kind of test: microbe, parasite or virus in culture. The settings on record: Etest on TSA. The text has this: (§1) Staphylococcus aureus is intrinsically resistant to the clinically approved cationic antimicrobial peptides polymyxin B (PMB) and colistin ([1], [16]). […] The MIC for PMB was subsequently determined using Etests for the identified mutants.
(§2) The strains used in this study include S. aureus strain JE2 (plasmid-cured derivative of USA300 LAC) and all derivative strains within the Nebraska Transposon Mutant Library (NTML), consisting of 1,920 unique transposon mutants with inactivation of nonessential genes ([15]). The bursa aurealis transposon used to create the collection contains the resistance cassette ermB, which confers resistance to erythromycin ([15]). Additionally we used S. aureus SA113 and two derivatives, SA113 ΔdltA ([9]) and SA113 ΔmprF ([10]). All bacterial strains were cultured at 37°C in tryptic soy broth (TSB) or on tryptic soy agar (TSA), with antimicrobial agents added as indicated. Two methods have been employed to determine MICs to various antimicrobial agents. (i) A 2-fold broth microdilution assay in TSB (100 µl) with an initial inoculum of approximately 5 × 10^5 cells/ml was employed to determine the MICs of polymyxin B sulfate (Sigma), gallidermin (Santa Cruz Biotechnology), nisin (Sigma), bacitracin (Sigma), and LL-37 (Isca Biochemicals). […] The MIC was determined upon incubation at 37°C for 22 h. […]

Test [2] concerns S. aureus JE2 vraG transposon mutant (SAUSA300_0648). Kind of test: microbe, parasite or virus in culture. The settings on record: Etest on TSA.
Excerpt: as §1, §2

Test [3] concerns S. aureus JE2 (wild type). Kind of test: microbe, parasite or virus in culture. The conditions noted are these: Etest on TSA, 37°C, 22 h; wild type S. aureus JE2.
Excerpt: as §1, §2

Test [4] deals with S. aureus JE2 vraF transposon mutant (SAUSA300_0647). The test is described as follows: microbe, parasite or virus in culture. The conditions noted are these: Etest on TSA.
Excerpt: as §1, §2

The subject of test [5] is S. aureus JE2 graR transposon mutant (SAUSA300_0645). The test is described as follows: microbe, parasite or virus in culture. The settings on record: Etest on TSA.
Excerpt: as §1, §2

The next test concerns S. aureus JE2 (WT). The test is described as follows: Kill curve experiment, polymyxin B with or without oligomycin A. Type of test: cell-based, Staphylococcus aureus. The conditions noted are these: WT JE2 in TSB; PMB alone at 0.25× MIC of WT; 4 h. From the text:
The ATP synthase is a well-described protein complex, and multiple inhibitors have been identified that interfere with its function—e.g., the macrolide oligomycin A ([32]). […] The combinatory efficacy of PMB and oligomycin A is similar to the observed killing efficacy of PMB against the atpA mutant.
FIG 4 Improved killing efficacy of PMB upon inhibition of the ATP synthase. […] The data represent the average from three measurements, with error bars showing 95% confidence intervals.
From overnight cultures of S. aureus JE2 and the derivative atpA mutant, 100 μl was diluted into 900 μl fresh TSB medium in a Falcon tube and grown for 1 h for the cells to reach the early exponential phase. After 1 h, the cultures were diluted into 10 ml fresh TSB medium in 100-ml Erlenmeyer flasks, reaching an initial cell count of approximately 10^6 cells/ml. Oligomycin A (Sigma) was added to flasks as indicated at a concentration of 8 μg/ml. […] CFU were determined on TSA plates before addition of oligomycin A (time zero [T0]), before addition of polymyxin B (time 30 min [T30]), and every hour for the following 4 h.

The test system of test [6] is S. aureus JE2 atpG transposon mutant (SAUSA300_2059). Type of test: cell-based, Staphylococcus aureus. The settings on record: Etest on TSA. From the text:
(§3) Staphylococcus aureus is intrinsically resistant to the clinically approved cationic antimicrobial peptides polymyxin B (PMB) and colistin ([1], [16]). […] The MIC for PMB was subsequently determined using Etests for the identified mutants. Nineteen mutants were confirmed to be at least 2-fold more susceptible than the WT (Table 1). As expected, we identified transposon insertions in graS, graR, vraF, and vraG, corroborating previous work on these determinants in S. aureus in relation to increased PMB susceptibility ([12]).
(§4) The strains used in this study include S. aureus strain JE2 (plasmid-cured derivative of USA300 LAC) and all derivative strains within the Nebraska Transposon Mutant Library (NTML), consisting of 1,920 unique transposon mutants with inactivation of nonessential genes ([15]). The bursa aurealis transposon used to create the collection contains the resistance cassette ermB, which confers resistance to erythromycin ([15]). Additionally we used S. aureus SA113 and two derivatives, SA113 ΔdltA ([9]) and SA113 ΔmprF ([10]). All bacterial strains were cultured at 37°C in tryptic soy broth (TSB) or on tryptic soy agar (TSA), with antimicrobial agents added as indicated. Two methods have been employed to determine MICs to various antimicrobial agents. (i) A 2-fold broth microdilution assay in TSB (100 µl) with an initial inoculum of approximately 5 × 10^5 cells/ml was employed to determine the MICs of polymyxin B sulfate (Sigma), gallidermin (Santa Cruz Biotechnology), nisin (Sigma), bacitracin (Sigma), and LL-37 (Isca Biochemicals). (ii) An Etest (BioMérieux) performed on TSA plates was employed to determine MICs for polymyxin B, colistin, ciprofloxacin, oxacillin, linezolid, gentamicin, vancomycin, and daptomycin. The MIC was determined upon incubation at 37°C for 22 h. When indicated, the Etest (BioMérieux) was performed on Mueller-Hinton agar plates (cation adjusted for calcium and magnesium).

Test [7] concerns S. aureus JE2 yajC transposon mutant (SAUSA300_1594). Format: cell-based, Staphylococcus aureus. The settings on record: Etest on TSA, 37°C, 22 h.
Excerpt: as §3, §4

For test [8], the system named is S. aureus JE2 vraS transposon mutant (SAUSA300_1866). Type of test: cell-based, Staphylococcus aureus. The settings on record: Etest on TSA, 37°C, 22 h.
Excerpt: as §3, §4

For test [9], the system named is S. aureus JE2 graS transposon mutant (SAUSA300_0646). Format: cell-based, Staphylococcus aureus. The conditions noted are these: Etest on TSA.
Excerpt: as §3, §4

The test system of test [10] is S. aureus JE2 atpH transposon mutant (SAUSA300_2061). Type of test: cell-based, Staphylococcus aureus. The settings on record: Etest on TSA.
Excerpt: as §3, §4

The test system of test [11] is S. aureus JE2 trkA transposon mutant (SAUSA300_0988). Type of test: cell-based, Staphylococcus aureus. The settings on record: Etest on TSA, 37°C, 22 h.
Excerpt: as §3, §4

Test [12] relates to S. aureus JE2 cbiO transposon mutant (SAUSA300_2176). Type of test: cell-based, Staphylococcus aureus. The conditions noted are these: Etest on TSA, 37°C, 22 h.
Excerpt: as §3, §4

With `CC[C@H](C)CCCCC(=O)N[C@@H](CCN)C(=O)N[C@H](C(=O)N[C@@H](CCN)C(=O)N[C@H]1CCNC(=O)[C@H]([C@@H](C)O)NC(=O)[C@H](CCN)NC(=O)[C@H](CCN)NC(=O)[C@H](CC(C)C)NC(=O)[C@@H](Cc2ccccc2)NC(=O)[C@H](CCN)NC1=O)[C@@H](C)O` [Polymyxin B, polymyxin B] (X1-[Dab]T[Dab][Dab][Dab][dF]L[Dab][Dab]T; lactam 4-C (inferred); N-terminus assumed), the MIC in [1] (37°C, 22 h, atpA mutant) turned out to be 16 µg/mL (≈ 13.3 µM); in test [2] (37°C, 22 h, vraG mutant), 16 µg/mL (≈ 13.3 µM); in test [3], 128 µg/mL (≈ 106 µM); in test [4] (37°C, 22 h, vraF mutant), 16 µg/mL (≈ 13.3 µM); in test [5] (37°C, 22 h, graR mutant), 16 µg/mL (≈ 13.3 µM); in test [6] (37°C, 22 h, atpG mutant) it was 16 µg/mL (≈ 13.3 µM). Moreover, the MIC in [7] came out at 64 µg/mL (≈ 53.2 µM); in test [8] it was 64 µg/mL (≈ 53.2 µM); in test [9] (37°C, 22 h, graS mutant), 24 µg/mL (≈ 19.9 µM); in test [10] (37°C, 22 h, atpH mutant) it was 16 µg/mL (≈ 13.3 µM); in [11], 48 µg/mL (≈ 39.9 µM); in [12], 48 µg/mL (≈ 39.9 µM). The “fold reduction in MIC / increased sensitivity relative to WT” value in test [1] (atpA mutant vs WT JE2), in test [2] (vraG mutant vs WT JE2), in test [4] (vraF mutant vs WT JE2) and in test [5] (graR mutant vs WT JE2) was 8 fold each time. In addition, the “killing efficacy (CFU over time)” value with S. aureus JE2 (WT) is given as “continued growth”. The “fold reduction in MIC relative to WT” value in [6] (atpG mutant vs WT JE2), in test [9] (graS mutant vs WT JE2) and in [10] (atpH mutant vs WT JE2) was 8 fold in each case.
